{"source": "paper PMC6195508", "about": "“Studies on the metabolism and degradation of vancomycin in simulated in vitro and aquatic environment by UHPLC-Triple-TOF-MS/MS” (Scientific Reports, 2018)", "key": {"[1]": {"assay": "Degradation of vancomycin in phosphate buffer saline (PBS system)", "assay_type": "physicochemical", "conditions": "chemical stability in phosphate buffer saline; vancomycin 60 mg/L; 37 °C, constant temperature oscillator, sampled every 24 h for 10 days; one sample per time point; UHPLC-Triple-TOF-MS/MS, ESI+", "experimental": "(§1) UHPLC-Triple-TOF-MS/MS analysis was performed on a Shimadzu LC-30A UHPLC system (Kyoto, Japan) consisting of an autosampler (SIL-30AC), a binary pump (LC-30AD) and a column oven (CTO-30A) connected to an AB SCIEX triple TOF 5600 MS/MS system (Redwood, USA) equipped with Duo-Spray ion source. The compound separation was conducted with a Poroshell 120 EC-C18 (2.1 × 150 mm, 2.7 μm, Agilent InfinityLab, USA) chromatographic column maintained at 40 °C. The mobile phases A (0.1% aqueous formic acid) and B (acetonitrile) were used to optimized the gradient elution program, which was operated at follows: 0–1 min, 5% B; 1–9 min, 5–10% B; 9–14 min, 10–45% B; 14–20 min, 45–90% B; 20–25 min, 90% B for washing the column; 25–25.1 min, 90–5% B; 25.1–30 min, 5% B for equilibrating the column. The constant flow rate was 0.4 mL/min, and the injection volume was 5 µL.\n(§2) The full-scan MS spectra and MS/MS spectra data were obtained in positive electrospray ionization (ESI) mode by Analyst TF 1.6 software (AB Sciex, USA). Full scan mode was applied, the parent ions scan ranged from m/z 100 to 2000 Da with a 200 ms accumulation time and the product ions scan range from 100 to 1500 Da with a 70 ms accumulation time. Simultaneously, the calibration delivery system calibrated mass numbers by every five samples to acquire exact mass of ions. The running time of data independent acquisition (DIA) was 20 min. […]"}, "[2]": {"assay": "Incubation of vancomycin in activated (experimental) and inactivated (control) rat liver microsomes", "assay_type": "in vitro ADME", "conditions": "vancomycin 60 mg/L, 37 °C, UHPLC-Triple-TOF-MS/MS", "experimental": "as §1, §2"}, "[3]": {"assay": "Degradation of vancomycin in pure water (pure water system)", "assay_type": "physicochemical", "conditions": "chemical stability in pure (Milli-Q) water; vancomycin 60 mg/L; 37 °C, constant temperature oscillator, sampled every 24 h for 10 days; one sample per time point; UHPLC-Triple-TOF-MS/MS, ESI+", "experimental": "as §1, §2"}}}
{"smiles": "CN[C@H](CC(C)C)C(=O)N[C@H]1C(=O)N[C@@H](CC(N)=O)C(=O)N[C@H]2C(=O)N[C@H]3C(=O)N[C@H](C(=O)N[C@H](C(=O)O)c4cc(O)cc(O)c4-c4cc3ccc4O)[C@H](O)c3ccc(c(Cl)c3)Oc3cc2cc(c3O[C@@H]2O[C@H](CO)[C@@H](O)[C@H](O)[C@H]2O[C@H]2C[C@](C)(N)[C@H](O)[C@H](C)O2)Oc2ccc(cc2Cl)[C@H]1O", "note": "[vancomycin, Vancomycin]", "values": [{"measurement": "time to 50% loss of vancomycin in PBS", "setting": "[1]", "value": "approximately 9 days"}, {"measurement": "half-life at 60 mg/L", "setting": "[2]; male, Sprague-Dawley rat liver microsomes 1 mg/mL protein (activated with 1 mmol/L NADPH, or inactivated), PBS, MgCl2 3.3 mmol/L, constant temperature oscillator, pre-heated 5 min, sampled every 24 h for 10 days, one sample per time point, ESI+, read-out: time to 50% loss of vancomycin in rat liver microsomes (converted)", "value": "~6", "unit": "days"}, {"measurement": "metabolism by liver microsomal cytochrome P450 enzymes (activated versus inactivated microsomes)", "setting": "[2]; similar degradation rate in activated (NADPH 1 mmol/L) and inactivated rat liver microsomes, 1 mg/mL protein", "value": "not metabolized in the liver"}, {"measurement": "time to 50% loss of vancomycin in water", "setting": "[3]", "value": "over 10 days"}]}
